Read-outs that look alike come from different tables or passages of the source. Values belong to the compound of their own block, whether it stands above or below them. Where a SMILES comes first, the peptide text is derived from it. Bridges are numbered along the chain shown (N, C = ends). Triazole bridges read from a SMILES are 1,4-linked. Side-chain parts run from the residue outwards. [ ]: non-standard residue; d: D form. The star is where a group is joined. X1 = NC(=O)CN1CCN(CC(=O)O)CCN(CC(=O)*)CCN(CC(=O)O)CC1; Lys(N3) = [N-]=[N+]=NCCCC[C@H](N)C(=O)O; Nle = CCCC[C@H](N)C(=O)O; Pra = C#CC[C@H](N)C(=O)O; AEEA = NCCOCCOCC(=O)O
Key:
[1] = In vivo biodistribution of [^203Pb]VMT01 in B16-F10 melanoma xenograft model; design: species or system athymic nude mice; conditions: athymic nude, mouse, intravenous, 74 KBq, total radioactivity, tail vein; for tissue uptake at 0.5 h: 0.5 h post-injection; for tissue uptake at 1.5 h: 1.5 h post-injection; for tissue uptake at 3 h: 3 h post-injection; for tissue uptake at 6 h: 6 h post-injection; for tissue uptake at 24 h: 24 h post-injection
Experimental: Radiolabeling of VMT01 was carried out according to published methods. Briefly, ^203Pb^2+ was purified on 50 mg Pb-resin (Eichrom Technologies, Lisle, IL, USA) and eluted into reaction vessel using 0.5 M sodium acetate (NaOAc) pH = 6 buffer. The reaction vessel contained 20 nmole VMT01 peptide precursor and 0.29 mL of 0.5 M sodium acetate (NaOAc) pH = 4 buffer to adjust final pH to 5.4. The reaction solution was heated under 85 °C for 30 min. After reactions, free ^203Pb was removed by StrataX C-18 SPE cartridge (Phenomenex, Torrance, CA, USA) and final products were collected in 50% EtOH in saline. Biodistribution of [^203Pb]VMT01 was determined in a B16-F10 murine melanoma xenograft model in athymic nude mice. B16-F10 xenograft was developed by the subcutaneous (SC) injection of 2 × 10^5 B16-F10 cells at the left shoulder in 100 µL 50% Matrigel in complete growth media. Then, 74 KBq of [^203Pb]VMT01 (5.4 pmole) were administered via tail vein injection (2 male and 2 female at each time point) in 100 µL of saline with less than 10% EtOH content. At 0.5, 1.5, 3, 6, and 24 h post-injection, animals were euthanized, and organs of interest were harvested and weighed. Radioactivity in tumor and organs was measured on a Cobra II automated gamma counter. […] The value for 48 h was extrapolated from the last 3 time points (3, 6, and 24 h) of the biodistribution by one phase exponential decay with least squares fitting method (GraphyPrism V7). The average kidney volume was assumed to be 0.33 cm^3 for C57BL6 mice. […] The voxel size of the model was adjusted to have the same kidney volume as the averaged value (0.33 cm^3). The elemental composition of the kidney and the mass density was assumed to be identical as the human adults’ values obtained from the International Commission on Radiation Units and measurements (ICRU) report 46 [52].

[2] = system: metastatic melanoma; design: method as in PMID 31562797; conditions: patients with metastatic melanoma; ref [13]; cited from earlier work
[3] = both sexes, blood, read-out: Biodistribution, Blood, Average
[4] = both sexes, brain, read-out: Biodistribution, Brain, Average
[5] = both sexes, heart, read-out: Biodistribution, Heart, Average
[6] = both sexes, kidney, read-out: Biodistribution, Kidneys, Average
[7] = both sexes, liver, read-out: Biodistribution, Liver, Average
[8] = both sexes, lungs, read-out: Biodistribution, Lungs, Average
[9] = both sexes, muscle, read-out: Biodistribution, Muscle, Average
[10] = both sexes, skin, read-out: Biodistribution, Skin, Average
[11] = both sexes, spleen, read-out: Biodistribution, Spleen, Average
[12] = both sexes, tumor, read-out: Biodistribution, Tumor, Average
[13] = male, testes, read-out: Biodistribution, Testes, Average

tissue uptake at 0.5 h [1, 3]: 1.1 %ID/g
tissue uptake at 1.5 h [1, 3]: 0.08 %ID/g
tissue uptake at 3 h [1, 3]: 0.03 %ID/g
tissue uptake at 6 h [1, 3]: 0.02 %ID/g
tissue uptake at 24 h [1, 3]: 0.01 %ID/g
tissue uptake at 0.5 h [1, 4]: 0.06 %ID/g
tissue uptake at 1.5 h [1, 4]: 0.02 %ID/g
tissue uptake at 3 h [1, 4]: 0.01 %ID/g
tissue uptake at 6 h [1, 4]: 0.01 %ID/g
tissue uptake at 24 h [1, 4]: 0.01 %ID/g
tissue uptake at 0.5 h [1, 5]: 0.66 %ID/g
tissue uptake at 1.5 h [1, 5]: 0.08 %ID/g
tissue uptake at 3 h [1, 5]: 0.05 %ID/g
tissue uptake at 6 h [1, 5]: 0.03 %ID/g
tissue uptake at 24 h [1, 5]: 0.02 %ID/g
tissue uptake at 0.5 h [1, 6]: 12.8 %ID/g
tissue uptake at 1.5 h [1, 6]: 6.1 %ID/g
tissue uptake at 3 h [1, 6]: 6 %ID/g
tissue uptake at 6 h [1, 6]: 5.3 %ID/g
tissue uptake at 24 h [1, 6]: 2.6 %ID/g
tissue uptake at 0.5 h [1, 7]: 0.64 %ID/g
tissue uptake at 1.5 h [1, 7]: 0.43 %ID/g
tissue uptake at 3 h [1, 7]: 0.31 %ID/g
tissue uptake at 6 h [1, 7]: 0.37 %ID/g
tissue uptake at 24 h [1, 7]: 0.22 %ID/g
tissue uptake at 0.5 h [1, 8]: 2.8 %ID/g
tissue uptake at 1.5 h [1, 8]: 2.98 %ID/g
tissue uptake at 3 h [1, 8]: 1.34 %ID/g
tissue uptake at 6 h [1, 8]: 1 %ID/g
tissue uptake at 24 h [1, 8]: 0.2 %ID/g
tissue uptake at 0.5 h [1, 9]: 0.73 %ID/g
tissue uptake at 1.5 h [1, 9]: 0.09 %ID/g
tissue uptake at 3 h [1, 9]: 0.04 %ID/g
tissue uptake at 6 h [1, 9]: 0.03 %ID/g
tissue uptake at 24 h [1, 9]: 0.02 %ID/g
tissue uptake at 0.5 h [1, 10]: 2.23 %ID/g
tissue uptake at 1.5 h [1, 10]: 0.27 %ID/g
tissue uptake at 3 h [1, 10]: 0.15 %ID/g
tissue uptake at 6 h [1, 10]: 0.17 %ID/g
tissue uptake at 24 h [1, 10]: 0.09 %ID/g
tissue uptake at 0.5 h [1, 11]: 0.58 %ID/g
tissue uptake at 1.5 h [1, 11]: 0.17 %ID/g
tissue uptake at 3 h [1, 11]: 0.12 %ID/g
tissue uptake at 6 h [1, 11]: 0.11 %ID/g
tissue uptake at 24 h [1, 11]: 0.09 %ID/g
tissue uptake at 0.5 h [1, 12]: 5.5 %ID/g
tissue uptake at 1.5 h [1, 12]: 8.9 %ID/g
tissue uptake at 3 h [1, 12]: 4.5 %ID/g
tissue uptake at 6 h [1, 12]: 3.8 %ID/g
tissue uptake at 24 h [1, 12]: 1.7 %ID/g
tissue uptake at 0.5 h [1, 13]: 3.23 %ID/g
tissue uptake at 1.5 h [1, 13]: 0.1 %ID/g
tissue uptake at 3 h [1, 13]: 0.04 %ID/g
tissue uptake at 6 h [1, 13]: 0.04 %ID/g
tissue uptake at 24 h [1, 13]: 0.03 %ID/g
Compound: CCCC[C@H](NC(C)=O)C(=O)N[C@H]1Cc2cn(nn2)CCCC[C@@H](C(=O)N[C@@H](CCCCNC(=O)COCCOCCNC(=O)CN2CCN(CC(=O)O)CCN(CC(N)=O)CCN(CC(=O)O)CC2)C(N)=O)NC(=O)[C@H](Cc2c[nH]c3ccccc23)NC(=O)[C@H](CCCNC(=N)N)NC(=O)[C@@H](Cc2ccccc2)NC(=O)[C@H](Cc2c[nH]cn2)NC1=O [[^203Pb]VMT01, metal not drawn] (Ac-[Nle][Pra]H[dF]RW[Lys(N3)]K([AEEA-X1])-NH2; triazole 2-7)

Compound: ipilimumab: anti-CTLA-4
complete response rate [2]: 6%

Compound: nivolumab: anti-PD1
complete response rate [2]: 19%

Reference: paper PMC8345035, “Targeted Alpha-Particle Radiotherapy and Immune Checkpoint Inhibitors Induces Cooperative Inhibition on Tumor Growth of Malignant Melanoma” (Cancers, 2021)
